In brackets after ≈: the same amount, converted by molar mass.
Columns and labels:
Carboxypeptidase A1 = molecular target: T1, Carboxypeptidase A1 (Bos taurus, UniProt P00730); assay: Inhibition of Bos taurus (bovine) pancrease carboxypeptidase A after 15 min
T1 sequence (P00730 whole entry): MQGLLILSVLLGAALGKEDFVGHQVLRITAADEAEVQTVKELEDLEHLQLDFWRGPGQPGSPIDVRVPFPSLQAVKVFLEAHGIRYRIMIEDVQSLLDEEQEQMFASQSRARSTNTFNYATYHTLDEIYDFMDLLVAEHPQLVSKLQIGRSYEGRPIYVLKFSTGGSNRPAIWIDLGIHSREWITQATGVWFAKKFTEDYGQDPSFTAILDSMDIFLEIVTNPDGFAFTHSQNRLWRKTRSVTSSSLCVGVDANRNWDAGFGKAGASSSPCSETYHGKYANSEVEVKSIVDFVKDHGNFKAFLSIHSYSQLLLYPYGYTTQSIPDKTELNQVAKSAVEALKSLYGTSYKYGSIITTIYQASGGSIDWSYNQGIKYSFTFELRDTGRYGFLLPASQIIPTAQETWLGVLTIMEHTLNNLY

Collagenase ColG = molecular target: T2, Collagenase ColG (Clostridium histolyticum, UniProt Q9X721); assay: Inhibition of Clostridium histolyticum collagenase after 15 min; set-up: species or system Hathewaya histolytica
T2 sequence (Q9X721 whole entry): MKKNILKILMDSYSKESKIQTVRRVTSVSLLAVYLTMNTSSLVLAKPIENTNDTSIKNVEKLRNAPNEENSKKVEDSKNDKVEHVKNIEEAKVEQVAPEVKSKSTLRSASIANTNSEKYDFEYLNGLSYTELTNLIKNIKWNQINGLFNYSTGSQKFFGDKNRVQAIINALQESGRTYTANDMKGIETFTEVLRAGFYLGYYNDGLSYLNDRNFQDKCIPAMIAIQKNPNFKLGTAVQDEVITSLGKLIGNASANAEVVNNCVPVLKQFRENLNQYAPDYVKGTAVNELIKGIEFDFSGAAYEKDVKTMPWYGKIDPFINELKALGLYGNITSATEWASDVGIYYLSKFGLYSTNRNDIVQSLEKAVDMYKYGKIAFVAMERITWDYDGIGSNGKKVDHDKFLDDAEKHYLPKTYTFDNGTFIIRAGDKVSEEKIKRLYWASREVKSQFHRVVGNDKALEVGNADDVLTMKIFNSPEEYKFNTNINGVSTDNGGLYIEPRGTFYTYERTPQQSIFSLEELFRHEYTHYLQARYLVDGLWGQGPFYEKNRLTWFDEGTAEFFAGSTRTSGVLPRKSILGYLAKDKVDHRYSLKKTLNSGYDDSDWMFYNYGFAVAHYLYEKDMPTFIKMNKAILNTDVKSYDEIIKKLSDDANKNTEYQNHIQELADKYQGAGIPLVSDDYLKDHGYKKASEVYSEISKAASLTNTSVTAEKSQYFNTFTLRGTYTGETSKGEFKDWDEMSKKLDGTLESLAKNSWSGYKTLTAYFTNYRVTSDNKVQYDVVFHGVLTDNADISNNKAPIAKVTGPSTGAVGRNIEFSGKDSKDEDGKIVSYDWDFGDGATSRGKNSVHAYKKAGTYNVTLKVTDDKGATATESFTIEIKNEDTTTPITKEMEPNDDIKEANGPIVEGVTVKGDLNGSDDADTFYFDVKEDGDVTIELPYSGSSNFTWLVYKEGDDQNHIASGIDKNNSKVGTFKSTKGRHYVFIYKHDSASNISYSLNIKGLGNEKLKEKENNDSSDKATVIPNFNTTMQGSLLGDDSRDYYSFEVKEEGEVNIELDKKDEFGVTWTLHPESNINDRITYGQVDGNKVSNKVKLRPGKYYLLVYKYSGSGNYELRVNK

Thermolysin = molecular target: T3, Thermolysin (Bacillus thermoproteolyticus, UniProt P00800); assay: Inhibition of Bacillus thermoproteolyticus thermolysin after 15 min
T3 sequence (P00800 whole entry): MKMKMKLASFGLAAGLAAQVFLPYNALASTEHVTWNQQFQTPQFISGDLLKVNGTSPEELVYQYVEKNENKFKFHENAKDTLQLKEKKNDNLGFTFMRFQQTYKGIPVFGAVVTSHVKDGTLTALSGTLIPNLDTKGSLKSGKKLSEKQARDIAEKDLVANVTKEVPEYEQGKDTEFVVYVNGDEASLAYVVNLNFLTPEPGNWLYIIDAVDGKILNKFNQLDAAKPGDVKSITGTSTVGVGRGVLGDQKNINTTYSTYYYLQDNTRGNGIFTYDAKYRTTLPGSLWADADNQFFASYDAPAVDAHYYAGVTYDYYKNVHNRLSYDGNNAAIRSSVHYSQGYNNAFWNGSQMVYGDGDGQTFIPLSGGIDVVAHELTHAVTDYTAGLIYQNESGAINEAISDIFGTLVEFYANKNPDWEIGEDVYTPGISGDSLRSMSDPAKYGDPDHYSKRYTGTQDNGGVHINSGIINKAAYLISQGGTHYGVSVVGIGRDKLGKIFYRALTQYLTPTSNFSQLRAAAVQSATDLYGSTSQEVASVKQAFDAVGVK

Tyrophagus putrescentiae [1] = assay: Insecticidal activity against Tyrophagus putrescentiae assessed as mortality at 0.20 g/m'2 after 24 hr by clip method; type: functional
Dermatophagoides farinae [2] = assay: Insecticidal activity against Dermatophagoides farinae assessed as mortality after 24 hr by clip method; type: functional
Colletotrichum lagenaria = assay: Antifungal activity against Colletotrichum lagenaria after 15 days by agar dilution method; type: functional; details: 360 h
Tyrophagus putrescentiae [3] = assay: Insecticidal activity against Tyrophagus putrescentiae assessed as mortality at 0.40 g/m'2 after 24 hr by clip method; type: functional
Coptotermes formosanus [4] = assay: Insecticidal activity against Coptotermes formosanus assessed as mortality at 0.050 g/m'2 after 24 hr; type: functional
Dermatophagoides farinae [5] = assay: Insecticidal activity against Dermatophagoides farinae assessed as mortality at 0.025 g/m'2 after 24 hr by clip method; type: functional
Tyrophagus putrescentiae [6] = assay: Insecticidal activity against Tyrophagus putrescentiae assessed as mortality at 0.50 g/m'2 after 24 hr by clip method; type: functional
Coptotermes formosanus [7] = assay: Insecticidal activity against Coptotermes formosanus assessed as mortality at 0.200 g/m'2 after 24 hr; type: functional
Pythium aphanidermatum = assay: Antifungal activity against Pythium aphanidermatum IFO 32440 after 15 days by agar dilution method; type: functional; details: IFO 32440, 360 h
Dermatophagoides farinae [8] = assay: Insecticidal activity against Dermatophagoides farinae assessed as mortality at 0.10 g/m'2 after 24 hr by clip method; type: functional
Thanatephorus cucumeris = assay: Antifungal activity against Thanatephorus cucumeris IFO 30445 after 15 days by agar dilution method; type: functional; details: IFO 30445, 360 h
[9] = test system: Colletotrichum orbiculare; assay: Antifungal activity against Colletotrichum orbiculare MAFF 306518 after 15 days by agar dilution method; type: functional; details: MAFF 306518, 360 h
Dermatophagoides farinae [10] = assay: Insecticidal activity against Dermatophagoides farinae assessed as mortality at 0.20 g/m'2 after 24 hr by clip method; type: functional
Dermatophagoides farinae [11] = assay: Insecticidal activity against Dermatophagoides farinae assessed as mortality at 0.40 g/m'2 after 24 hr by clip method; type: functional
Fusarium solani = assay: Antifungal activity against Fusarium solani IFO 9955 after 15 days by agar dilution method; type: functional; details: IFO 9955, 360 h
Coptotermes formosanus [12] = assay: Insecticidal activity against Coptotermes formosanus assessed as mortality; type: functional
Coptotermes formosanus [13] = assay: Insecticidal activity against Coptotermes formosanus assessed as mortality at 0.050 g/m'2 after 48 hr; type: functional
Coptotermes formosanus [14] = assay: Insecticidal activity against Coptotermes formosanus assessed as mortality at 0.025 g/m'2 after 24 hr; type: functional
Tyrophagus putrescentiae [15] = assay: Insecticidal activity against Tyrophagus putrescentiae assessed as mortality after 24 hr by clip method; type: functional
Tyrophagus putrescentiae [16] = assay: Insecticidal activity against Tyrophagus putrescentiae assessed as mortality at 0.30 g/m'2 after 24 hr by clip method; type: functional
Dermatophagoides farinae [17] = assay: Insecticidal activity against Dermatophagoides farinae assessed as mortality at 0.50 g/m'2 after 24 hr by clip method; type: functional
Botrytis cinerea = assay: Antifungal activity against Botryotinia fuckeliana IFO 30915 after 15 days by agar dilution method; type: functional; details: IFO 30915, 360 h
Coptotermes formosanus [18] = assay: Insecticidal activity against Coptotermes formosanus assessed as mortality at 0.025 g/m'2 after 48 hr; type: functional
Tyrophagus putrescentiae [19] = assay: Insecticidal activity against Tyrophagus putrescentiae assessed as mortality at 0.10 g/m'2 after 24 hr by clip method; type: functional
Coptotermes formosanus [20] = assay: Insecticidal activity against Coptotermes formosanus assessed as mortality at 0.100 g/m'2 after 24 hr; type: functional
Dermatophagoides farinae [21] = assay: Insecticidal activity against Dermatophagoides farinae assessed as mortality at 0.05 g/m'2 after 24 hr by clip method; type: functional
Coptotermes formosanus [22] = assay: Insecticidal activity against Coptotermes formosanus assessed as mortality at 0.200 g/m'2 after 48 hr; type: functional
Coptotermes formosanus [23] = assay: Insecticidal activity against Coptotermes formosanus assessed as mortality at 0.100 g/m'2 after 48 hr; type: functional
Phomopsis obscurans = assay: Antifungal activity against Phomopsis obscurans MAFF 744018 after 15 days by agar dilution method; type: functional; details: Paraphomopsis obscurans, MAFF 744018, 360 h
Dermatophagoides farinae [24] = assay: Insecticidal activity against Dermatophagoides farinae assessed as mortality at 0.30 g/m'2 after 24 hr by clip method; type: functional

Q: Which results are given for `c1cnc2c(c1)ccc1cccnc12` [PHENANTHROLINE]?
A: IC50 (Carboxypeptidase A1): 422 µM; IC50 (Collagenase ColG): 185 µM; IC50 (Thermolysin): 360 µM

Q: Which results are given for `CC(C)c1cccc(=O)c(O)c1` [HINOKITIOL]?
A: mortality (Tyrophagus putrescentiae [1]): 33.6%; LC50 (Dermatophagoides farinae [2]): 0.37 g/m2; MIC (Colletotrichum lagenaria): 25 µg/mL (≈ 152 µM); mortality (Tyrophagus putrescentiae [3]): 77.5%; mortality (Coptotermes formosanus [4]): 40%; mortality (Dermatophagoides farinae [5]): 7.8%; mortality (Tyrophagus putrescentiae [6]): 91.3%; mortality (Coptotermes formosanus [7]): 100%; IC50 (Carboxypeptidase A1): 2.76 µM; MIC (Pythium aphanidermatum): 12 µg/mL (≈ 73.1 µM); mortality (Dermatophagoides farinae [8]): 45.2%; MIC (Thanatephorus cucumeris): 12 µg/mL (≈ 73.1 µM); MIC [9]: 25 µg/mL (≈ 152 µM); mortality (Dermatophagoides farinae [10]): 96.3%; mortality (Dermatophagoides farinae [11]): 100%; MIC (Fusarium solani): 50 µg/mL (≈ 304 µM); LC50 (Coptotermes formosanus [12]): 0.08 g/m2; mortality (Coptotermes formosanus [13]): 50%; mortality (Coptotermes formosanus [14]): 10%; LC50 (Tyrophagus putrescentiae [15]): 0.24 g/m2; mortality (Tyrophagus putrescentiae [16]): 55.5%; mortality (Dermatophagoides farinae [17]): 100%; MIC (Botrytis cinerea): 50 µg/mL (≈ 304 µM); IC50 (Collagenase ColG): 24 µM; mortality (Coptotermes formosanus [18]): 20%; mortality (Tyrophagus putrescentiae [19]): 11.9%; mortality (Coptotermes formosanus [20]): 50%; mortality (Dermatophagoides farinae [21]): 18.8%; IC50 (Thermolysin): 61 µM; mortality (Coptotermes formosanus [22]): 100%; mortality (Coptotermes formosanus [23]): 100%; MIC (Phomopsis obscurans): 12 µg/mL (≈ 73.1 µM); mortality (Dermatophagoides farinae [24]): 100%
